Structures are written as SMILES. “Also recorded” adds a separate entry of the source.

One data set concerns MOG35-55 EAE mouse model. Briefly: MOG35-55 chronic progressive EAE model. Particulars: for areas of myelin disruption in the white matter (luxol fast blue, MBP immunohistochemistry): cervical spinal cords; for functional improvement (disease score): daily i.p. for 10 days from peak of disease; for MBP expression and extent of demyelination in the spinal cord: histology after treatment, vs vehicle; for average clinical scores and cumulative clinical scores: larger treatment cohort, n=12 to 18 mice per group; for immune cell infiltration into the lesion areas (IBA1 staining): spinal cords after treatment. As for the experimental part: Immunohistochemistry was performed as previously described. In short, tissue sections or whole slices were washed three times in PBS, blocked in PBS containing Triton X-100 (0.1%) and normal donkey serum (NDS, 2% for sections and 10% for cerebellar slices) and incubated with primary antibody overnight. For MBP immunohistochemistry, the primary antibody solution consisted of 2% NDS, 2% bovine serum albumin, and 0.1% saponin. For all other antibodies, the primary antibody solution consisted of 2% NDS and 0.1% Triton X-100. Primary antibodies used included rat anti-MBP (Abcam, ab7349; 1:100), mouse anti-APC CC1 clone (Millipore, MABC200; 1:500), and rabbit anti-IBA1 (Wako Chemicals, 019-19741; 1:1,000). The tissue was then washed in PBS and incubated in secondary antibodies for […]. Secondary detection was performed with Alexa Fluor-conjugated secondary antibodies (1:500) for 1 h. Luxol fast blue staining was performed as previously described.
Samples were processed as previously described. In short, samples were osmicated, stained en bloc with uranyl acetate, and embedded in EMbed 812, an Epon-812 substitute (EMS). Sections (1 μm) were cut and stained with toluidine blue and visualized on a light microscope (Leica DM5500B). Additional thin sections were cut, carbon coated and imaged either on a JEOL JEM-1200-EX electron microscope or a T12 electron microscope (FEI).
EAE was induced by immunizing 10-week-old C57BL/6 female mice with […] injection of […] complete Freund's adjuvant emulsion (Hooke Laboratories). One hour after immunization, mice were given 100 ng of pertussis toxin by 100 μl intraperitoneal injection. A second dose of pertussis toxin was administered the next day. EAE onset was monitored daily and scored using a clinical scale where 0 represented no abnormality; 1, limp tail; 2, limp tail and hind limb weakness; 3, hind limb paralysis; 4, hind limb paralysis and forelimb weakness; and 5, moribund. […] Once mice reached peak of disease ˜day 15; clinical score=3) they were randomized into treatment groups, and drug or vehicle (DMSO in saline) was administered intraperitoneally daily for 10 days (n=12-16 mice per group). […] Experimenters were blinded to the identity of the treatments and animals were scored daily. Cumulative disease scores for each animal were calculated during the treatment period, and a two-tailed t-test compared drug—with vehicle-treated groups. The extent of recovery for each animal was calculated as the difference between the peak disease score and the score at the end of each experiment, and a two-tailed t-test was used to compare each treatment with vehicle. External validation of MOG35-55 EAE experiments (n=12 mice per group) was performed at Hooke Laboratories with experimenters blinded to the identity of the substances.

Another data set concerns mouse OPCs. The data set can be described thus: OPC differentiation into MBP+ oligodendrocytes. The format is cell-based. The settings on record: for number of MBP+ oligodendrocytes by duration of treatment: 24, 48, 56 and 72 h; for number of MBP+ oligodendrocytes at 72 h by time of treatment start: treatment started at 0, 16, 24 or 48 h.
In data set [1] the test system is corpus callosum of mouse pups. Briefly: Developmental myelination in mouse pups. The format is in vivo. Particulars: for number of CC1+ oligodendrocytes in the lateral corpus callosum / portion/length of corpus callosum covered by MBP+ fibres: pups treated daily for 4 days from postnatal day 2, clobetasol 2 mg/kg, miconazole 10 mg/kg i.p., vs vehicle. The text has this:
On postnatal day 6 the pups were anaesthetized using ketamine and xylazine and euthanized by transcardial perfusion with 4% PFA. Tissue was fixed overnight in 4% PFA, equilibrated in 30% sucrose, and embedded in OCT. Sections (20 μm) were cut and processed for CC1 and MBP immunohistochemistry. ImageJ was then used to count and measure area of the corpus callosum as well as measure the extent of the corpus callosum length covered by MBP1 processes. Eight coronal sections containing corpus callosum rostral to the hippocampus from at least three animals per group were used for these analyses. To quantitate extent of MBP in the corpus callosum, a line was drawn through the centre of the corpus callosum from the lateral tip to the dorsal most extent of MBP expression in the corpus callosum. The length of this line was measured and then the dorsal-most point of the line was extended to the dorsal tip of the corpus callosum and measured to yield the length of the lateral callosum. The two numbers were divided to get the MBP/corpus callosum proportion. A two-tailed t-test was used to compare drug—with vehicle-treated groups.

The next data set deals with OPCs. The data set can be described thus: HCA of astrocyte induction (GFAP). The class given is cell-based, mouse. The settings on record: 72 h, in vitro. How it is done: For the astrocyte experiments in FIG. 3C, the experimental setup was identical to the PLP1-based primary validation screen except plates were stained for GFAP (DAKO, Z0334; 1:5,000). BMP4 (R&D Systems; 50 ng ml^−1) and LIF (Millipore; 10^3 U ml^−1) were used as the positive control for astrocyte induction. Assay plates were imaged on the Operetta High Content Imaging and Analysis system and a set of 14×20 fields captured. Columbus Data Management and Analysis System software (PerkinElmer) was used to quantify the percentage of GFAP1 astrocytes in each well using a method similar to that developed for oligodendrocytes.

The mark [2] stands for this setting: miconazole 10 mg/kg, clobetasol 2 mg/kg, benztropine 10 mg/kg.
Where [3] appears, read: 2 mg/kg daily i.p., postnatal day 2-6.

Procedure for mouse OPCs: EpiSC-derived OPCs were seeded onto poly-D-lysine 96-well Viewplate or CellCarrier plates (PerkinElmer) coated with laminin (Sigma, L2020; 10 μgml^−1) using electronic multichannel pipetors. For the primary screen, 30,000 cells were seeded per well in screening medium (DMEM/F12 supplemented with N2 (R&D Systems), B-27 (Life Technologies), neurotrophin 3 (R&D Systems; 10 ng ml^−1), cAMP (Sigma; 50 μM), IGF-1 (R&D Systems; 100 ng ml^−1), noggin (R&D Systems; 100 ngml^−1)) and allowed to attach for 2 h before addition of drug. NIH Clinical Collection I and II drugs were added to assay plates with 0.1 ml pin replicators (Molecular Devices, Genetix; X5051), resulting in a final primary screening concentration of 5 μM. Thyroid-hormone-positive controls and DMSO vehicle controls were included in each assay plate. Cells were incubated under standard conditions (37° C., 5% CO2) for 3 days and fixed with 4% paraformaldehyde (PFA) in phosphate buffered saline (PBS). Fixed plates were permeabilized with 0.1% Triton X-100 and blocked with 10% donkey serum (v/v) in PBS for 2 h. Cells were labelled with MBP antibodies (Abcam, ab7349; 1:100) for 1 h at room temperature (˜22° C.) followed by detection with Alexa Fluorconjugated secondary antibodies (1:500) for 45 min. Nuclei were visualized by DAPI staining (Sigma; 1 μgml^−). All plates for the primary screen were processed and analyzed simultaneously to eliminate variability.
For the 5 μM in vitro screen, stained plates were imaged on the Opera confocal imaging system (PerkinElmer) and a set of 24×10 fields were collected from each well, resulting in an average of 10,000 cells being scored per well. For the dose-response (6.7 μM, 5 μM, 3.3 μM, 1.7 μM, 666 nM, 500 nM, and 333 nM) in vitro assays, plates were imaged on the Operetta High Content Imaging and Analysis system (PerkinElmer) and a set of 14×20 fields captured from each well resulting in an average of 3,300 cells being scored per well. […] Each traced nucleus region was then expanded by 50% and cross-referenced with the mature myelin protein (MBP or PLP1) stain to identify oligodendrocyte nuclei, and from this the percentage of oligodendrocytes was calculated. Processes emanating from oligodendrocyte nuclei were identified using the CSIRO2 analysis module within a custom Acapella script. Maximum mean process length (denoted ‘process length’) and mean process intensity (denoted ‘process intensity’) were generated on a per well basis. For the 5 μM in vitro screen, values were calculated and normalized to 100 for thyroid hormone (positive control)-treated wells and to 0 for DMSO(vehicle)-treated wells, on a per plate basis.

With `C[C@H]1C[C@H]2[C@@H]3CCC4=CC(=O)C=C[C@]4(C)[C@@]3(F)[C@@H](O)C[C@]2(C)[C@@]1(O)C(=O)CCl` [clobetasol], in the data set on MOG35-55 EAE mouse model, the “areas of myelin disruption in the white matter (luxol fast blue, MBP immunohistochemistry)” value is recorded as “decrease in areas of myelin disruption in the white matter”; the “MBP expression and extent of demyelination in the spinal cord” value is “restoration of MBP expression and a reduction in the extent of demyelination in the spinal cord”; the “average clinical scores and cumulative clinical scores” value is “significant reduction of disease and functional improvement”; the “immune cell infiltration into the lesion areas (IBA1 staining)” value is recorded as “small reduction of immune cell infiltration into the lesion areas, especially in clobetasol-treated animals, but not an abrogation”. Also, in the data set on MOG35-55 EAE mouse model (setting [2]), the “functional improvement (disease score)” value is on record as “marked improvement in function”. Further, the “overt toxicity to the animals” value in the data set with MOG35-55 EAE mouse model (miconazole 10 mg/kg, clobetasol 2 mg/kg, benztropine 10 mg/kg, daily i.p. 10 days) was “no drugs showed any overt evidence of toxicity”. In addition, in the data set with mouse OPCs, the “number of MBP+ oligodendrocytes by duration of treatment” value is listed as “progressive, time-dependent increase” and the “number of MBP+ oligodendrocytes at 72 h by time of treatment start” value was “dependent on drug treatment within the first 24 h of differentiation”. Further, in data set [1] (setting [3]), the “mortality of treated pups” value is on record as “some animals of the cohort died before end of treatment”; the “sickness and body weight of treated pups” value is on record as “exhibited sickness on the basis of this treatment, with low body weight”. For the same compound, in data set [1], the “number of CC1+ oligodendrocytes in the lateral corpus callosum” value is listed as “significant increase in the number of CC1^+ oligodendrocytes; also recorded: marked increase in the number of CC1-positive oligodendrocytes” and the “portion/length of corpus callosum covered by MBP+ fibres” value is recorded as “significantly larger portion of the corpus callosum was populated by MBP^+ fibre tracts; also recorded: significant increase in the length of the corpus callosum covered with aligned MBP^+ fibres”. For the same compound, in the data set with OPCs, the “astrocyte formation from OPCs” value is given as “neither drug showed a significant impact on astrocyte formation”.

On to `Clc1ccc(COC(Cn2ccnc2)c2ccc(Cl)cc2Cl)c(Cl)c1` (centres unmarked) [miconazole], for which, in the data set with MOG35-55 EAE mouse model, the “areas of myelin disruption in the white matter (luxol fast blue, MBP immunohistochemistry)” value is reported as “decrease in areas of myelin disruption in the white matter”; the “MBP expression and extent of demyelination in the spinal cord” value is “restoration of MBP expression and a reduction in the extent of demyelination in the spinal cord”; the “average clinical scores and cumulative clinical scores” value is “significant reduction of disease and functional improvement”; the “immune cell infiltration into the lesion areas (IBA1 staining)” value is on record as “small reduction of immune cell infiltration into the lesion areas”. Besides, in the data set with MOG35-55 EAE mouse model (setting [2]), the “functional improvement (disease score)” value is “marked improvement in function”. Further, in the data set on mouse OPCs, the “number of MBP+ oligodendrocytes by duration of treatment” value is given as “progressive, time-dependent increase” and the “number of MBP+ oligodendrocytes at 72 h by time of treatment start” value is listed as “dependent on drug treatment within the first 24 h of differentiation”. In data set [1], the “number of CC1+ oligodendrocytes in the lateral corpus callosum” value was “significant increase in the number of CC1^+ oligodendrocytes; also recorded: marked increase in the number of CC1-positive oligodendrocytes” and the “portion/length of corpus callosum covered by MBP+ fibres” value was “significantly larger portion of the corpus callosum was populated by MBP^+ fibre tracts; also recorded: significant increase in the length of the corpus callosum covered with aligned MBP^+ fibres”. Besides, the “astrocyte formation from OPCs” value in the data set on OPCs is recorded as “neither drug showed a significant impact on astrocyte formation”.

Source of the values: patent publication US10653691B2, “Method of promoting remyelination” (Case Western Reserve University, priority 2013, dated 2020).
